According to patent EP4711365A1 (Shanghai Hansoh Biomedical Co., Ltd., priority 2023, dated 2024):

What was measured:
[1] = system: Groα secretion by HT-29 cells; assay: Inhibition of Groα secretion by HT-29 cells stimulated with IL-17A (ELISA); assay type: cell-based, Human; conditions: Homo sapiens, IL-17A 30 ng/ml, Groα in supernatant
Experimental: Test example 2 Assay for inhibitory effect of compounds of the present invention against Groα secretion by HT-29 cells
Experimental objective: to measure the inhibitory effect of the compounds against Groα secretion by HT-29 cells, thereby evaluating the inhibition of the compounds on IL-17A pathway.
Experimental method: A cell suspension at 50,000 cells/ml was prepared, and 200 µl of the cell suspension was added to each well of a 96-well plate, i.e., 10,000 cells/well. The plate was cultured overnight. In the 96-well V-bottom plate, 5 mM compound solution was serially diluted 3-fold using DMSO, and the compound from each well was diluted 100-fold using a complete culture medium. IL-17A protein (R&D, #BT7955-025/CF) with a stock concentration of 100 µg/ml was diluted 333.33-fold using a complete culture medium. The compound and IL-17A were mixed at a volume ratio of 1:1 and incubated at 37°C for 30 minutes. 50 µl of a mixture of the compound and IL-17A was added to cell wells, and the final concentration of IL-17A protein was 30 ng/ml.
The mixture was incubated in a 37°C, 5% CO2 cell culture incubator for 48 hours. The concentration of Groα in the supernatant was determined by ELISA method using Human Groα Valukin Elisa kit (Biotechne, # VAL139), and the absorbance intensity at 450 nm was measured using a microplate reader (PE, EnVision2105). Data were analysed using GraphPad Prism 8.3.0.
Experimental data processing method: Data were analysed using GraphPad Prism 8.3.0.
Inhibition rate% = [(average value of positive control wells - value of sample wells)/(average value of positive control wells - average value of negative control wells)] × 100%, where the sample wells are wells containing cells plus compounds at different concentration gradients, the positive control wells are wells containing cells plus IL-17A, and the negative control wells are wells containing culture medium plus IL-17A.
Curve fitting: The IC50 value was obtained by curve fitting based on the inhibition rate (%) at each concentration using the log(inhibitor) vs. responseVariable slope (four parameters) in GraphPad Prism 6.0, and the calculation equation was Y = Bottom + (Top-Bottom)/(1+10^((LogIC50-X)*HillSlope)).

[2] = Pharmacokinetic assay in Wistar rats, oral; conditions: rat, 30 mg/kg
Experimental: Experimental objective: to study the pharmacokinetic behaviours of the compounds of the present invention in the body (plasma) of Wistar rats as test animals after oral administration at a dose of 30 mg/kg. • 2. Experimental scheme • 2.1 Test drugs: the examples of the present invention, prepared in house. • 2.2 Test animals: Wistar rats (female, 3 rats per group), from Beijing Vital River Laboratory Animal Technology Co., Ltd., with the animal production license no.
Solutol HS15 was melted in a water bath at 50-60°C, and then 50 mL of the melted Solutol HS15 was added to 450 mL of ultrapure water. The mixture was stirred and sonicated to obtain 500 mL of 10% Solutol HS15 solution. The compound was weighed, and according to the total administration volume, 30% PEG solution was first added. The mixture was shaken uniformly and sonicated until a clear solution was obtained. Subsequently, 70% (10% Solutol) in water was added, resulting in a colourless and clear solution with a concentration of 3.0 mg/mL.
2.4 Administration scheme: After overnight fasting, 3 female Wistar rats per group were administered orally (PO) at a dose of 30 mg/kg with an administration volume of 10 mL/kg.
• 1) To 50 uL of plasma sample was added 250 uL of acetonitrile for precipitation, and the mixture was mixed and then centrifuged at 4°C at 4000 rpm for 20 minutes. • 2) The treated supernatant solution was taken and subjected to LC/MS/MS to analyse the concentration of the test compounds. LC/MS/MS analysis instrument: AB Sciex API-4000 Qtrap-Shimadzu Controller-CBM20A.
• Chromatographic column: Waters Xbridge C18 3.5 um 2.1*50 mm • Mobile phase: solution A: 0.1% formic acid in water, and solution B: 0.1% formic acid in acetonitrile • Flow rate: 0.6 mL/min • Elution time: 0-3.5 minutes, with eluents as follows:

IC50 ([1]; HT-29, 48 h)	AUC(0-t) ([2]; in vivo)	Cmax ([2]; in vivo)	Tmax ([2]; in vivo)	half-life ([2]; in vivo)	Compound	IC50 ([1]; 48 hours)	AUC(0-t) ([2]; plasma)	Cmax ([2]; plasma)	Tmax ([2]; plasma)	half-life ([2]; plasma)
8 nM	19800 ng·h/mL	3830 ng/mL	2 h	2.4 h	CCn1nccc1C(=O)N[C@H](C(=O)Nc1ncc([C@@H](CN2CCC(OC)CC2)N2CC(F)(F)CCC2=O)s1)[C@H]1CC[C@H](C)CC1 [Example 646]	–	–	–	–	–
2.6 nM	15500 ng·h/mL	2650 ng/mL	2 h	3.1 h	[2H]C([2H])([2H])C([2H])([2H])n1nccc1C(=O)NC(C(=O)Nc1ncc(C(CN2CCOCC2C)N2CC(F)(F)CCC2=O)s1)C1CCC(C)CC1 (centres unmarked) [Example 818]	–	–	–	–	–
3.5 nM	24600 ng·h/mL	4930 ng/mL	2 h	2.9 h	[2H]C([2H])([2H])OC1CCN(CC(c2cnc(NC(=O)C(NC(=O)c3ccnn3C([2H])([2H])C([2H])([2H])[2H])C3CCC(C)CC3)s2)N2CC(F)(F)CCC2=O)CC1F (centres unmarked) [Example 992]	–	–	–	–	–
5 nM	24400 ng·h/mL	2310 ng/mL	4 h	4.5 h	C[C@H]1CC[C@H]([C@H](NC(=O)C2(F)CC2)C(=O)Nc2ncc([C@@H](CN3CCC(C(F)(F)F)CC3)N3CC(F)(F)CNC3=O)s2)CC1 [Example 774, N-((S)-2-((5-((R)-1-(5,5-difluoro-2-oxotetrahydropyrimidin-1(2H)-yl)-2-(4-(trifluoromethyl)piperidin-1-yl)ethyl)thiazol-2-yl)amino)-1-((1r,4S)-4-methylcyclohexyl)-2-oxoethyl)-1-fluorocyclopropane-1-carboxamide]	–	–	–	–	–
4 nM	18900 ng·h/mL	2160 ng/mL	4 h	4.5 h	[2H]C([2H])([2H])C([2H])([2H])n1nccc1C(=O)N[C@H](C(=O)Nc1ncc([C@@H](CN2CCC(CF)CC2)N2CC(F)(F)CCC2=O)s1)[C@H]1CC[C@H](C)CC1 [Example 928]	–	–	–	–	–
–	–	–	–	–	[2H]C([2H])([2H])C([2H])([2H])n1nccc1C(=O)N[C@H](C(=O)Nc1ncc([C@@H](CN2C[C@@H](C)O[C@@H](C)C2)N2CC(F)(F)CCC2=O)s1)[C@H]1CC[C@H](C)CC1 [Example 849, N-((S)-2-((5-((R)-1-(5,5-difluoro-2-oxopiperidin-1-yl)-2-((2R,6S)-2,6-dimethylmorpholino)ethyl)thiazol-2-yl)amino)-1-((1r,4S)-4-methylcyclohexyl)-2-oxoethyl)-1-(ethyl-d5)-1H-pyrazole-5-carboxamide]	4 nM	15500 ng·h/mL	2480 ng/mL	2 h	2.8 h
2.3 nM	13200 ng·h/mL	1500 ng/mL	4 h	9.4 h	[2H]C([2H])([2H])C([2H])([2H])n1nccc1C(=O)N[C@H](C(=O)Nc1ncc([C@@H](CN2CCC3(CC2)CC3(F)F)N2CC(F)(F)CCC2=O)s1)[C@H]1CC[C@H](C)CC1 [Example 958]	–	–	–	–	–
8.1 nM	15300 ng·h/mL	1750 ng/mL	2 h	4.3 h	[2H]C([2H])([2H])C([2H])([2H])n1nccc1C(=O)NC(C(=O)Nc1ncc(C(COC)n2cc(Cl)ccc2=O)s1)C1CCC(C)CC1 (centres unmarked) [Example 586]	–	–	–	–	–
–	–	–	–	–	[2H]C([2H])([2H])C([2H])([2H])n1nccc1C(=O)N[C@H](C(=O)Nc1ncc([C@@H](CN2C[C@H](C)O[C@@H](C)C2)N2CC(F)(F)CCC2=O)s1)[C@H]1CC[C@H](C)CC1 [Example 854, N-((S)-2-((5-((R)-1-(5,5-difluoro-2-oxopiperidin-1-yl)-2-((2S,6S)-2,6-dimethylmorpholino)ethyl)thiazol-2-yl)amino)-1-((1r,4S)-4-methylcyclohexyl)-2-oxoethyl)-1-(ethyl-d5)-1H-pyrazole-5-carboxamide]	9 nM	14900 ng·h/mL	2170 ng/mL	1 h	3 h
–	–	–	–	–	[2H]C([2H])([2H])C([2H])([2H])n1nccc1C(=O)N[C@H](C(=O)Nc1ncc([C@@H](CN2CCOCC2)N2CC(F)(F)CCC2=O)s1)[C@H]1CC[C@H](C)CC1 [Example 624, N-((S)-2-((5-((R)-1-(5,5-difluoro-2-oxopiperidin-1-yl)-2-morpholinoethyl)thiazol-2-yl)amino)-1-((1r,4S)-4-methylcyclohexyl)-2-oxoethyl)-1-(ethyl-d5)-1H-pyrazole-5-carboxamide]	4.3 nM	11000 ng·h/mL	3400 ng/mL	1 h	1 h
–	–	–	–	–	[2H]C([2H])([2H])C([2H])([2H])n1nccc1C(=O)NC(C(=O)Nc1ncc(C(COC)N2CC(F)(F)CCC2=O)s1)C1CCC(C)CC1 [Example 613, N-((S)-2-((5-((R)-1-(5,5-difluoro-2-carbonylpiperidin-1-yl)-2-methoxyethyl)thiazol-2-yl)amino)-1-((1r,4S)-4-methylcyclohexyl)-2-carbonylethyl)-1-(ethyl-d5)-1H-pyrazole-5-carboxamide]	5.6 nM	21000 ng·h/mL	3300 ng/mL	2 h	2.6 h
–	–	–	–	–	[2H]C([2H])([2H])C([2H])([2H])n1nccc1C(=O)N[C@H](C(=O)Nc1ncc([C@@H](CN2CCO[C@H](C)C2)N2CC(F)(F)CCC2=O)s1)[C@H]1CC[C@H](C)CC1 [Example 627, N-((S)-2-((5-((R)-1-(5,5-difluoro-2-oxopiperidin-1-yl)-2-((R)-2-methylmorpholino)ethyl)thiazol-2-yl)amino)-1-((1r,4S)-4-methylcyclohexyl)-2-oxoethyl)-1-(ethyl-d5)-1H-pyrazole-5-carboxamide]	6.3 nM	22100 ng·h/mL	2530 ng/mL	4 h	3.2 h
9 nM	13100 ng·h/mL	2000 ng/mL	4 h	2.4 h	[2H]C([2H])([2H])O[C@@H]1CCN(C[C@H](c2cnc(NC(=O)[C@@H](NC(=O)c3ccnn3C([2H])([2H])C([2H])([2H])[2H])[C@H]3CC[C@H](C)CC3)s2)N2CC(F)(F)CCC2=O)C[C@@H]1F [Example 994]	–	–	–	–	–
–	–	–	–	–	[2H]C([2H])([2H])C([2H])([2H])n1nccc1C(=O)N[C@H](C(=O)Nc1ncc([C@@H](CN2C[C@@H](C)O[C@H](C)C2)N2CC(F)(F)CCC2=O)s1)[C@H]1CC[C@H](C)CC1 [Example 857, N-((S)-2-((5-((R)-1-(5,5-difluoro-2-oxopiperidin-1-yl)-2-((2R,6R)-2,6-dimethylmorpholino)ethyl)thiazol-2-yl)amino)-1-((1r,4S)-4-methylcyclohexyl)-2-oxoethyl)-1-(ethyl-d5)-1H-pyrazole-5-carboxamide]	2.4 nM	15900 ng·h/mL	2290 ng/mL	2 h	3.5 h
6.5 nM	18800 ng·h/mL	1710 ng/mL	4 h	9.3 h	[2H]C([2H])([2H])C([2H])([2H])n1nccc1C(=O)N[C@H](C(=O)Nc1ncc([C@@H](CN2CCC(C(F)(F)F)CC2)N2CC(F)(F)CCC2=O)s1)[C@H]1CC[C@H](C)CC1 [Example 948]	–	–	–	–	–

Compound	IC50 ([1]; HT-29, 48 h)	AUC(0-t) ([2]; in vivo)	Cmax ([2]; in vivo)	Tmax ([2]; in vivo)	half-life ([2]; in vivo)	IC50 ([1]; 48 hours)	AUC(0-t) ([2]; plasma)	Cmax ([2]; plasma)	Tmax ([2]; plasma)	half-life ([2]; plasma)
[2H]C([2H])([2H])C([2H])([2H])n1nccc1C(=O)N[C@H](C(=O)Nc1ncc([C@@H](CN2CCO[C@@H](C)C2)N2CC(F)(F)CCC2=O)s1)[C@H]1CC[C@H](C)CC1 [Example 628]	–	20900 ng·h/mL	2270 ng/mL	4 h	3.3 h	6.7 nM	–	–	–	–
